Drawing on PubChem BioAssay (NCI), this text covers GI50 and TGI for seven compounds.

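48-hour exposure; five concentrations; linearly interpolated endpoints. GI50 is the concentration that inhibits growth by half. TGI is the concentration that stops growth completely.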 A value given as a limit tells only on which side of the number the result lay.

What all share (assay): DTP human tumour cell line panel, 48 h
For experiment [1], the system named is 786-0 renal.
Experiment [2] deals with SK-MEL-5 melanoma.
In experiment [3] the test system is PC-3 prostate.
Experiment [4] relates to SK-MEL-28 melanoma.
The test system of experiment [5] is HOP-92 NSCLC.
In experiment [6] the test system is SF-539 CNS.
In experiment [7] the test system is HOP-62 NSCLC.
Experiment [8] concerns HL-60(TB) leukemia.
In experiment [9] the test system is LOX IMVI melanoma.
For experiment [10], the system named is RXF 393 renal.

With `CC(=O)N1N=C2/C(=C/c3ccccc3)CC(C)CC2C1c1ccccc1` (stereo not given), the GI50 in experiment [1] is 17.7 µM; in experiment [2], 11.6 µM; in [3], 10.7 µM; in [4], 18.5 µM; in experiment [5], 13.9 µM; in experiment [6] it was 17.4 µM. Moreover, the GI50 is 16.6 µM in experiment [7], 8.82 µM in experiment [8], 13.9 µM in experiment [9] and 25.6 µM in experiment [10]. For the same compound, the total growth inhibition concentration (TGI) turned out to be 34.8 µM in experiment [1]; 25.4 µM in [2]; 40.2 µM in [3]; 36.5 µM in [4]; 31.2 µM in [5]; 32.7 µM in experiment [6]. Besides, the TGI in experiment [7] was 32.6 µM; in [8], 32.1 µM; in experiment [9] it was 29.9 µM; in experiment [10], over 100 µM.

Take `Oc1ccc(-c2nnc3sc(-c4ccc(F)c(Oc5ccccc5)c4)nn23)cc1`: the GI50 in experiment [1] is 21.8 µM; in experiment [2], 18.6 µM; in experiment [3], 36.8 µM; in [4], over 100 µM; in experiment [5] it was 26.1 µM; in experiment [6], 24.2 µM. Further, the GI50 in [7] is 21.2 µM; in experiment [8], over 100 µM; in experiment [9], 36.7 µM; in experiment [10], 7.47 µM. In addition, the TGI in [1] is 50.3 µM; in experiment [2], over 100 µM; in [3] it was over 100 µM; in experiment [4] it was over 100 µM; in experiment [5], over 100 µM; in experiment [6], 65 µM. For the same compound, the TGI in [7] is 42.7 µM; in [8] it was over 100 µM; in experiment [9], over 100 µM; in [10], 25.3 µM.

For `Cn1ccnc1C(=O)/C=C/c1ccc(C(=O)Nc2ccc(Cl)cc2)cc1`, the GI50 is 0.761 µM in experiment [1]; 2.35 µM in experiment [2]; 0.951 µM in [3]; 3.7 µM in [4]; 1.14 µM in [5]; 0.626 µM in experiment [6]. Besides, the GI50 is 1.04 µM in experiment [7], 0.669 µM in experiment [8], 0.686 µM in [9] and 0.836 µM in experiment [10]. Besides, the TGI in [1] came out at 1.82 µM; in experiment [2], 7.04 µM; in [3], 19 µM; in experiment [4], 9.89 µM; in experiment [5] it was 27 µM; in experiment [6], 1.42 µM. Also, the TGI is over 33.3 µM in experiment [7], 1.97 µM in [8], 1.56 µM in experiment [9] and 2.66 µM in [10].

As for `O=C1NN(c2ccc(C(=O)O)cc2)C(=O)/C1=C\c1ccc([N+](=O)[O-])o1`, the GI50 is over 100 µM in [1]; over 100 µM in experiment [2]; over 100 µM in experiment [3]; over 100 µM in [4]; 29 µM in experiment [5]; over 100 µM in experiment [6]. For the same compound, the GI50 in experiment [7] was over 100 µM; in [8], 34.5 µM; in [9] it was 11.1 µM; in experiment [10], 40.7 µM. In addition, the TGI in experiment [1] was over 100 µM; in experiment [2], over 100 µM; in experiment [3], over 100 µM; in experiment [4], over 100 µM; in [5] it was 74.8 µM; in experiment [6], over 100 µM. The TGI is over 100 µM in experiment [7], 91.7 µM in experiment [8], 31.2 µM in [9] and over 100 µM in experiment [10].

Regarding `CCOc1c(Br)cc(C2C(C(=O)OC)=CN(C)C=C2C(=O)OC)cc1OC`, the GI50 in experiment [1] was over 100 µM; in experiment [2], 40.5 µM; in [3] it was 30 µM; in experiment [4], over 100 µM; in experiment [5], 33.4 µM; in experiment [6] it was over 100 µM. Further, the GI50 in [7] was over 100 µM; in experiment [8], 37.8 µM; in experiment [9], 85.1 µM; in experiment [10] it was 24.1 µM. Besides, the total growth inhibition concentration (TGI) in [1], in [2], in [3], in experiment [4], in experiment [5] and in experiment [6] was over 100 µM each time. Further, the TGI in experiment [7], in experiment [8], in experiment [9] and in experiment [10] was over 100 µM throughout.

As for `Cn1cc(-c2nc(-c3c[nH]c4ncccc34)cs2)c2cc(F)ccc21`, the GI50 is 2.82 µM in experiment [1]; 2.6 µM in [2]; 2.75 µM in experiment [3]; 4.75 µM in experiment [4]; 1.92 µM in [5]; 3.8 µM in experiment [6]. The GI50 in experiment [7] is 4.11 µM; in experiment [8], 3.21 µM; in [9], 2.48 µM; in experiment [10], 2.49 µM. The TGI in experiment [1] is 7.64 µM; in experiment [2], 11.5 µM; in experiment [3], 13.1 µM; in experiment [4], 16.9 µM; in experiment [5], 5.79 µM; in experiment [6], 15.3 µM. For the same compound, the TGI in experiment [7] was determined as 16.5 µM; in [8], 15.6 µM; in [9], 7.06 µM; in [10], 9.14 µM.

As to `Cn1cc(C2=C(c3cccc4ccccc34)C(=O)NC2=O)c2ccccc21`, the GI50 in experiment [1] is 7.99 µM; in experiment [2] it was 5.1 µM; in [3] it was 7.51 µM; in [4], 8.91 µM; in experiment [5] it was 8.46 µM; in experiment [6] it was 5.99 µM. In addition, the GI50 in experiment [7] is 18.5 µM; in experiment [8], 10.4 µM; in experiment [9], 6.96 µM; in experiment [10], 4.41 µM. For the same compound, the TGI in experiment [1] was over 25 µM; in experiment [2] it was 11.9 µM; in experiment [3] it was over 25 µM; in [4] it was over 25 µM; in [5] it was 24.3 µM; in experiment [6] it was 14.2 µM. The TGI in experiment [7] is over 25 µM; in experiment [8], over 25 µM; in [9] it was over 25 µM; in experiment [10] it was 9.93 µM.
